Data reported in US20100152129A1 (priority 2008, published 2010).

Key:
Panc-1 cells [1] = assay: Propidium iodide-based fluorescence cytotoxicity assay; format: cell-based; conditions: single agent
Procedure: The combination of P276-00 and Gemcitabine was screened for its synergistic effect in Panc-1 cells using propidium iodide based fluorescence cytotoxicity assay.
Test System: The Panc-1 cell line was procured from ATCC (American Tissue type Culture Collection), USA. Catalog number: CRL-1469 and the frozen vial was stored in liquid nitrogen container. Propidium iodide dye was procured from Sigma-Aldrich, USA. Catalog number: P-4170-100 mg and it was stored at 2-8° C.
Method: Panc-1 cells were seeded at a density of 2000 cells/well, in a 200 μL in tissue culture grade 96 well plate and allowed to recover for 24 hrs in a humidified 5%±0.2 CO2 incubator at 37° C.±0.5° C. After 24 hrs, 1 μL of 200 X (200 times higher than required concentration is denoted as 200×) compound (dissolved in neat DMSO), as per Table 1 or 2 was added to the wells. The final DMSO concentration was 0.5% in wells. The plate was incubated for 24 hrs in humidified 5%±0.2 CO2 incubator at 37±0.5° C.
After 24 hrs Minimum Essential Medium (MEM) from the Gemcitabine treated wells was removed and washed two times with fresh MEM and followed by addition of 200 μL of fresh MEM per well. 1 μL of 200× (200 times higher than required concentration is denoted as 200×) compound (dissolved in neat DMSO) was then added as per the Table 1 and 2 designs. The final DMSO concentration was 0.5% in wells which also served as the vehicle control for the study. After 72 hrs the plate was removed from CO2 incubator and spent MEM aspirated from the wells and supplemented with fresh MEM. This was followed by addition of 25 μL of propidium iodide (50 μg/ml in medium) per well. The same plate was frozen at −80° C. for 24 hrs and then thawed and allowed to come to room temperature. The fluorescence at a wavelength of 530 nm excitation and 620 nm emission was read.
The percent cytotoxicity was calculated using the following formula

Panc-1 cells [2] = assay: Protein expression using high content cell imaging system, and efficacy score; format: cell-based; conditions: for Efficacy score: cumulative over proteins of Table 7
Method: The data was generated using cell imaging system, where, cells after drug exposure were treated with protein specific antibody, followed by detection markers for the antibody. The images were generated and protein levels quantitated as an indication of drug effect.
Methodology: Panc-1 cells were seeded at a density of 5000 cells per well in 96 well plates and allowed recovery for 24 hrs in 5% CO2 incubator. After recovery, cells were challenged with Gemcitabine (IC30) for 24 hrs. After 24 hrs Gemcitabine was removed and fresh medium was added. […] The combination efficacy was identified against single treatments. At the end of the experiment Panc-1 cells were fixed and permeabilized. All the primary antibodies were added at a concentration according to manufacture protocol. After one hour incubation the cells were washed three times and labeled with secondary antibodies tagged with Dye Light 548 and nucleus was stained with Hoechest3342. After antibody labeling, cells were stained with the Cellomics whole Cell Stain Green to identify the cell's cytoplasmic area. Then all the plates were scanned in Cellomics ArrayScan® VTI HCS Reader. The results were analyzed using software that is designed for measuring the read from the imaging system.
Expression of proteins listed in Table 7 were determined in terms of fluorescence unit obtained by using target activation algorithm from High content imaging system from Cellomics. • Protein expression data expressed as fluorescent units from Table 7 were used to generate expression ratio by comparing drug treatments (individual or combination) against the normal control with no drug treatment. The ratio of expression which is considered as dys-regulation (1.5 fold above or below the range for up-regulation and down regulation respectively) is subtracted from the normal range (±1.5) and is used to measure the efficacy score.
Expression ratio=protein expression during drug treatment/protein expression under normal control.
Efficacy score =Cumulative score (expression ratio−±1.50) for all proteins.

Panc-1 cells [3] = assay: Microarray gene expression analysis; format: cell-based, human; conditions: Panc-1, microarray
Description: The goal of the microarray analysis was to evaluate putative gene expression signatures associated with the in vitro synergistic effect of the combination therapy of Gemcitabine with […]-00 in Panc-1 cells. The time points (3 hrs, 6 hrs, 12 hrs) were chosen to establish early molecular changes in the transcription profile for probable biomarkers and mechanism of action for the combination therapy. Approximately 20 million cells were lysed in Trizol Reagent (Invitrogen Corp, USA) and passed through a 21-gauge needle for 5-10 times before RNA extraction was performed. Total RNA extraction was performed using the RNeasy Mini kit (Qiagen, USA) according to the manufacturer's protocol. The final total RNA was eluted in nuclease-free water and the concentration/purity was determined by Nanodrop spectrophotometer (Thermo Fisher Scientific, Delaware, USA). cDNA generation and labeling: 20 μg of total RNA was reverse transcribed using amino allyl dUTP and oligo dT, the resulting cDNA was indirectly labeled with Cy3/Cy5 dyes (GE Healthcare, USA) using a fluorescent labeling kit (Promega Biosciences, USA). The concentration and dye incorporation of the labeled products were determined by Nanodrop spectrophotometer (Thermo Fisher Scientific, Delaware, USA). Equal amounts of labeled cDNA were denatured at 95° C. for 5 mins, cooled and microfuged at 13200 rpm for 5 mins before hybridization. Array fabrication and hybridization: 70-mer transcript oligonucleotides representing 36,480 human genes was purchased from Operon Biotechnologies (Germany) and spotted onto aminosilane coated glass slides (ArrayIt, USA) by contact printing using a Omnigrid (OG100) spotter (Genomic Solutions Inc, USA). Post printing, the slides were cross-linked with UV light at […], vacuumed, sealed and stored in the dark. The slides were pre-processed for background reduction using Pronto (Promega Life sciences, USA) pre-hyb kit as per the manufacturer's instructions. Hybridization was carried out in the GeneTAC Hybstation (Genomic Solutions Inc, USA) for 18 hrs. The hybridization protocol is as follows: 6 hrs at 42° C. (with agitation), 6 hrs at 35° C. (with agitation), and 6 hrs at 30° C. (with agitation). Post hybridization, the arrays were washed according to the manufacturer's protocol. The slides were dried by centrifugation at 1600 rpm for 5 mins. Scanning and image analysis: Post drying, the slides were scanned in a laser scanner (Genomic Solutions, USA) for Cy3 and Cy5 detection. The PMT settings were adjusted using the auto-exposure feature of the scanner. The TIFF files thus generated were exported to GeneTAC Integrator software (Genomic Solutions, USA) for image analysis. The resultant CSV file containing the annotated genome and the corresponding ratios were further used for data analysis.

[4] = 6 hours post treatment, control 3
[5] = 36 hours post treatment, control 98

CN1CC[C@@H](c2c(O)cc(O)c3c(=O)cc(-c4ccccc4Cl)oc23)[C@@H]1CO.Cl (relative stereo) [P276-00, (+)-trans-2-(2-Chloro-phenyl)-5,7-dihydroxy-8-(2-hydroxy-methyl-1-methyl-pyrrolidin-3-y1)-chromen-4-one hydrochloride]
% Cytotoxicity (Panc-1 cells [1]; 60 nM): 27%
% Cytotoxicity (Panc-1 cells [1]; 120 nM): 33%
% Cytotoxicity (Panc-1 cells [1]; 240 nM): 35%
% Cytotoxicity (Panc-1 cells [1]; 480 nM): 45%
% Cytotoxicity (Panc-1 cells [1]; 960 nM): 58%
PTN protein expression (Panc-1 cells [2]; 6 hours post treatment, control 1): 2 fluorescence units
GADD45-α protein expression (Panc-1 cells [2]; [4]): 10 fluorescence units
ID1 protein expression (Panc-1 cells [2]; [4]): 1 fluorescence units
P27 protein expression (Panc-1 cells [2]; 6 hours post treatment, control 6): 7 fluorescence units
CDC25B protein expression (Panc-1 cells [2]; 6 hours post treatment, control 7): 2 fluorescence units
CDKN2A protein expression (Panc-1 cells [2]; 6 hours post treatment, control 8): 76 fluorescence units
CCND1 protein expression (Panc-1 cells [2]; 6 hours post treatment, control 74): 84 fluorescence units
GAPDH protein expression (Panc-1 cells [2]; 6 hours post treatment, control 80): 96 fluorescence units
CASP3 protein expression (Panc-1 cells [2]; 6 hours post treatment, control 147): 152 fluorescence units
MMP-1 protein expression (Panc-1 cells [2]; 6 hours post treatment, control 501): 618 fluorescence units
COX15 protein expression (Panc-1 cells [2]; 6 hours post treatment, control 627): 907 fluorescence units
COX2 protein expression (Panc-1 cells [2]; 6 hours post treatment, control 635): 406 fluorescence units
BAX protein expression (Panc-1 cells [2]; 6 hours post treatment, control 819): 700 fluorescence units
VEGF protein expression (Panc-1 cells [2]; 6 hours post treatment, control 829): 618 fluorescence units
BCL2 protein expression (Panc-1 cells [2]; 6 hours post treatment, control 830): 376 fluorescence units
pRB protein expression (Panc-1 cells [2]; 6 hours post treatment, control 1240): 1540 fluorescence units
Efficacy score (Panc-1 cells [2]; 6 hours): 4.7
GADD45-α protein expression (Panc-1 cells [2]; 16 hours post treatment, control 13): 23 fluorescence units
CDC25B protein expression (Panc-1 cells [2]; 16 hours post treatment, control 54): 15 fluorescence units
CDKN2A protein expression (Panc-1 cells [2]; 16 hours post treatment, control 64): 9 fluorescence units
P27 protein expression (Panc-1 cells [2]; 16 hours post treatment, control 67): 12 fluorescence units
PTN protein expression (Panc-1 cells [2]; 16 hours post treatment, control 76): 12 fluorescence units
ID1 protein expression (Panc-1 cells [2]; 16 hours post treatment, control 77): 18 fluorescence units
CCND1 protein expression (Panc-1 cells [2]; 16 hours post treatment, control 90): 46 fluorescence units
GAPDH protein expression (Panc-1 cells [2]; 16 hours post treatment, control 100): 100 fluorescence units
CASP3 protein expression (Panc-1 cells [2]; 16 hours post treatment, control 202): 607 fluorescence units
VEGF protein expression (Panc-1 cells [2]; 16 hours post treatment, control 579): 264 fluorescence units
BCL2 protein expression (Panc-1 cells [2]; 16 hours post treatment, control 644): 81 fluorescence units
BAX protein expression (Panc-1 cells [2]; 16 hours post treatment, control 711): 644 fluorescence units
COX15 protein expression (Panc-1 cells [2]; 16 hours post treatment, control 718): 852 fluorescence units
MMP-1 protein expression (Panc-1 cells [2]; 16 hours post treatment, control 929): 264 fluorescence units
COX2 protein expression (Panc-1 cells [2]; 16 hours post treatment, control 1109): 375 fluorescence units
pRB protein expression (Panc-1 cells [2]; 16 hours post treatment, control 2583): 1400 fluorescence units
Efficacy score (Panc-1 cells [2]; 16 hours): 10.8
GADD45-α protein expression (Panc-1 cells [2]; 36 hours post treatment, control 19): 31 fluorescence units
P27 protein expression (Panc-1 cells [2]; 36 hours post treatment, control 96): 5 fluorescence units
CCND1 protein expression (Panc-1 cells [2]; [5]): 25 fluorescence units
CDC25B protein expression (Panc-1 cells [2]; [5]): 4 fluorescence units
GAPDH protein expression (Panc-1 cells [2]; [5]): 2 fluorescence units
ID1 protein expression (Panc-1 cells [2]; [5]): 6 fluorescence units
PTN protein expression (Panc-1 cells [2]; 36 hours post treatment, control 100): 100 fluorescence units
CASP3 protein expression (Panc-1 cells [2]; 36 hours post treatment, control 265): 670 fluorescence units
BAX protein expression (Panc-1 cells [2]; 36 hours post treatment, control 715): 1120 fluorescence units
COX15 protein expression (Panc-1 cells [2]; 36 hours post treatment, control 722): 1327 fluorescence units
VEGF protein expression (Panc-1 cells [2]; 36 hours post treatment, control 1093): 355 fluorescence units
MMP-1 protein expression (Panc-1 cells [2]; 36 hours post treatment, control 1316): 355 fluorescence units
BCL2 protein expression (Panc-1 cells [2]; 36 hours post treatment, control 1410): 374 fluorescence units
CDKN2A protein expression (Panc-1 cells [2]; 36 hours post treatment, control 1441): 707 fluorescence units
pRB protein expression (Panc-1 cells [2]; 36 hours post treatment, control 2840): 1657 fluorescence units
Efficacy score (Panc-1 cells [2]; 36 hours): 11.1
CDK8 gene expression value (log value of intensities) (Panc-1 cells [3]): 0.16
DICER1 gene expression value (log value of intensities) (Panc-1 cells [3]): 0.14
DLG5 gene expression value (log value of intensities) (Panc-1 cells [3]): 0.25
DNAI1 gene expression value (log value of intensities) (Panc-1 cells [3]): −0.20
FA38A gene expression value (log value of intensities) (Panc-1 cells [3]): −0.93
FGF5 gene expression value (log value of intensities) (Panc-1 cells [3]): 0.23
HELLS gene expression value (log value of intensities) (Panc-1 cells [3]): 0.62
HIST1H2BO gene expression value (log value of intensities) (Panc-1 cells [3]): −0.39
ID1 gene expression value (log value of intensities) (Panc-1 cells [3]): 0.18
MKKS gene expression value (log value of intensities) (Panc-1 cells [3]): −0.08
PPIL4 gene expression value (log value of intensities) (Panc-1 cells [3]): 0.30
RRM2 gene expression value (log value of intensities) (Panc-1 cells [3]): −0.14
SLC19A2 gene expression value (log value of intensities) (Panc-1 cells [3]): 0.97
SNX7 gene expression value (log value of intensities) (Panc-1 cells [3]): −0.12
TMPRSS3 gene expression value (log value of intensities) (Panc-1 cells [3]): 0.33
